Assay results from ChEMBL document CHEMBL1201862, “PubChem BioAssay data set” (2004).
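Briefly, cells in 96-well plates were exposed to five compound concentrations for 48 h, and endpoints were estimated by linear interpolation. Abbreviation: GI50, concentration required for 50% inhibition of growth.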 Calls of active or inactive are those of the source. Cut-off read from the data, not from the text of the source: active = GI50 up to about 1.1 µM and inactive = higher.

What was measured:
Experiment in all cases: DTP human tumour cell line panel, 48 h
[1] = system: CAKI-1
[2] = system: MDA-MB-231
[3] = system: NCI-H460
[4] = system: HL-60
[5] = system: HOP-92
[6] = system: Malme-3M
[7] = system: DU-145
[8] = system: UO-31
[9] = system: ACHN
[10] = system: RXF 393
[11] = system: MDA-MB-435
[12] = system: EKVX
[13] = system: SNB-19
[14] = system: COLO 205
[15] = system: OVCAR-3
[16] = system: U-251
[17] = system: HCT-15
[18] = system: PC-3
[19] = system: CCRF-CEM
[20] = system: MCF7
[21] = system: A498
[22] = system: SNB-75
[23] = system: NCI-H226
[24] = system: UACC-257
[25] = system: MDA-N
[26] = system: NCI-H23
[27] = system: KM12
[28] = system: SK-MEL-2
[29] = system: 786-0
[30] = system: RPMI-8226
[31] = system: SK-MEL-5
[32] = system: OVCAR-8
[33] = system: A549
[34] = system: NCI-H522
[35] = system: LOX IMVI
[36] = system: SK-OV-3
[37] = system: HCC 2998
[38] = system: OVCAR-5
[39] = system: SF-539
[40] = system: SF-295
[41] = system: IGROV-1
[42] = system: SN12C
[43] = system: UACC-62
[44] = system: K562
[45] = system: TK-10
[46] = system: M14
[47] = system: SW-620
[48] = system: BT-549
[49] = system: SR
[50] = system: OVCAR-4
[51] = system: HCT-116
[52] = system: NCI/ADR-RES
[53] = system: MOLT-4
[54] = system: SF-268
[55] = system: HT-29
[56] = system: HOP-62
[57] = system: T47D
[58] = system: SK-MEL-28

With `C=C1c2nc3ccccc3n2C=C(c2ccccc2)N1c1ccccc1` the GI50 [1] was 81.7 µM (inactive), the GI50 [2] was > 100 µM (inactive) and the GI50 [3] was 27.5 µM (inactive). The GI50 [4] was 58.7 µM (inactive), the GI50 [5] was 50.4 µM (inactive) and the GI50 [6] was > 100 µM (inactive). The GI50 [7] was > 100 µM (inactive), the GI50 [8] was 25.7 µM (inactive) and the GI50 [9] was 49.4 µM (inactive). For the same molecule, the GI50 [10] was 22.4 µM (inactive), the GI50 [11] was 40.5 µM (inactive) and the GI50 [12] was > 100 µM (inactive). The GI50 [13] was 40.4 µM (inactive), the GI50 [14] was 52.5 µM (inactive) and the GI50 [15] was > 100 µM (inactive). For the same molecule, the GI50 [16] was 58.6 µM (inactive), the GI50 [17] was 13.6 µM and the GI50 [18] was 34.3 µM (inactive). The GI50 [19] was 53.3 µM (inactive), the GI50 [20] was 14.6 µM (inactive) and the GI50 [21] was 65.3 µM (inactive). The GI50 [22] was > 100 µM (inactive), the GI50 [23] was 57.4 µM (inactive) and the GI50 [24] was 74.1 µM (inactive). The GI50 [25] was 39.8 µM (inactive), the GI50 [26] was 33.7 µM (inactive) and the GI50 [27] was 24.8 µM (inactive). For the same molecule, the GI50 [28] was 73.5 µM (inactive), the GI50 [29] was > 100 µM (inactive) and the GI50 [30] was 17.3 µM (inactive). The GI50 [31] was 17.1 µM (inactive), the GI50 [32] was 37.8 µM (inactive) and the GI50 [33] was 30.3 µM (inactive). For the same molecule, the GI50 [34] was 15.8 µM (inactive), the GI50 [35] was 42.2 µM (inactive) and the GI50 [36] was > 100 µM (inactive). The GI50 [37] was 12.5 µM (inactive), the GI50 [38] was > 100 µM (inactive) and the GI50 [39] was 43.6 µM (inactive). The GI50 [40] was 32.1 µM (inactive), the GI50 [41] was > 100 µM (inactive) and the GI50 [42] was 92.5 µM (inactive). The GI50 [43] was 43.1 µM (inactive), the GI50 [44] was 34.5 µM (inactive) and the GI50 [45] was 49 µM (inactive). For the same molecule, the GI50 [46] was 67.9 µM (inactive), the GI50 [47] was 40.3 µM (inactive) and the GI50 [48] was 24.5 µM (inactive). For the same molecule, the GI50 [49] was 21.7 µM (inactive), the GI50 [50] was 16.4 µM (inactive) and the GI50 [51] was 13.5 µM (inactive). The GI50 [52] was 34 µM (inactive) and the GI50 [53] was 21.4 µM (inactive).

For `CCCCOC(C)(C)/C=C/C(O)[C@](C)(O)[C@H]1[C@H](O)C[C@@]2(C)[C@@H]3CCc4c(cc(OC5OC(CO)C(O)C(O)C5O)c(O)c4C)C3(C)C(=O)C[C@]12C` (some centres undefined), the GI50 [1] was > 100 µM (inactive), the GI50 [54] was > 100 µM (inactive) and the GI50 [2] was > 100 µM (inactive). The GI50 [3] was > 100 µM (inactive), the GI50 [5] was > 100 µM (inactive) and the GI50 [6] was > 100 µM (inactive). The GI50 [7] was > 100 µM (inactive), the GI50 [8] was > 100 µM (inactive) and the GI50 [9] was > 100 µM (inactive). The GI50 [55] was > 100 µM (inactive), the GI50 [10] was > 100 µM (inactive) and the GI50 [11] was > 100 µM (inactive). For the same molecule, the GI50 [12] was > 100 µM (inactive), the GI50 [13] was > 100 µM (inactive) and the GI50 [56] was > 100 µM (inactive). The GI50 [14] was > 100 µM (inactive), the GI50 [15] was > 100 µM (inactive) and the GI50 [16] was > 100 µM (inactive). For the same molecule, the GI50 [17] was over 100 µM, the GI50 [57] was > 100 µM (inactive) and the GI50 [18] was > 100 µM (inactive). The GI50 [19] was > 100 µM (inactive), the GI50 [20] was > 100 µM (inactive) and the GI50 [21] was > 100 µM (inactive). The GI50 [22] was > 100 µM (inactive), the GI50 [23] was > 100 µM (inactive) and the GI50 [24] was > 100 µM (inactive). The GI50 [25] was > 100 µM (inactive), the GI50 [26] was > 100 µM (inactive) and the GI50 [27] was > 100 µM (inactive). The GI50 [28] was > 100 µM (inactive), the GI50 [29] was > 100 µM (inactive) and the GI50 [31] was > 100 µM (inactive). The GI50 [32] was > 100 µM (inactive), the GI50 [33] was > 100 µM (inactive) and the GI50 [34] was > 100 µM (inactive). For the same molecule, the GI50 [35] was > 100 µM (inactive), the GI50 [36] was > 100 µM (inactive) and the GI50 [37] was > 100 µM (inactive). For the same molecule, the GI50 [38] was > 100 µM (inactive), the GI50 [39] was > 100 µM (inactive) and the GI50 [58] was > 100 µM (inactive). The GI50 [40] was > 100 µM (inactive), the GI50 [41] was > 100 µM (inactive) and the GI50 [42] was > 100 µM (inactive). For the same molecule, the GI50 [43] was > 100 µM (inactive), the GI50 [44] was > 100 µM (inactive) and the GI50 [45] was > 100 µM (inactive). For the same molecule, the GI50 [46] was > 100 µM (inactive), the GI50 [47] was > 100 µM (inactive) and the GI50 [48] was > 100 µM (inactive). For the same molecule, the GI50 [49] was > 100 µM (inactive), the GI50 [50] was > 100 µM (inactive) and the GI50 [51] was > 100 µM (inactive). For the same molecule, the GI50 [52] was > 100 µM (inactive) and the GI50 [53] was > 100 µM (inactive).
